Reference: patent publication US7109338B2, “1,2-disubstituted 1,4-dihydro-4-oxoquinoline compounds” (priority 1999, dated 2006)
In brackets after ≈: the same amount, converted by molar mass.

What was measured:
HRV50(A2#58) = assay: Anti-rhinovirus spectrum (MTT), HRV50; format: cell-based, human rhinovirus; design: Anti-Rhinovirus activity, HRV50: unit not given here
HRV5 = assay: Anti-rhinovirus spectrum (MTT), HRV5; format: cell-based, human rhinovirus; design: Anti-Rhinovirus activity, HRV5: unit not given here
HRV29 (5582) = assay: Anti-rhinovirus spectrum (MTT), HRV29; format: cell-based, human rhinovirus; design: Anti-Rhinovirus activity, HRV29: unit not given here
[1] = test system: Poliovirus type 1 (Polio 1, Sabin); assay: microbe, parasite or virus in culture; format: cell-based
[2] = test system: echovirus type 11 (Echo 11, Gregory); assay: In vitro anti-picornavirus activity (MTT), Echo 11; format: cell-based; details: HeLa-S3 cells, MTT method, 37° C.
HRV32 (363) = assay: Anti-rhinovirus spectrum (MTT), HRV32; format: cell-based, human rhinovirus; design: Anti-Rhinovirus activity, HRV32: unit not given here
[3] = test system: coxsackievirus type B4 (CB4,JVB); assay: In vitro anti-picornavirus activity (MTT), CB4; format: cell-based; details: HeLa cells, MTT method, 37° C.
HeLa cells = assay: Cytotoxicity (MTT, without virus), HeLa; details: HeLa, no virus, incubated for 4 days
HeLa-S3 cells = assay: Cytotoxicity (MTT, without virus), HeLa-S3; details: HeLa-S3, no virus, incubated for 4 days
HRV1A (E28) = assay: Anti-rhinovirus activity (MTT), HRV1A; format: cell-based, human rhinovirus; design: Anti-Rhinovirus activity, HRV1A: unit not given here
[4] = test system: human rhinovirus type 1B (HRV 1B, B632); assay: Anti-rhinovirus activity (MTT), HRV1B; format: cell-based; design: Anti-Rhinovirus activity, HRV1B: unit not given here; details: for IC50 HRV1B: HeLa (Ohio strain) cells, MTT method, 33° C.
HRV10 (204-CV14) = assay: Anti-rhinovirus spectrum (MTT), HRV10; format: cell-based, human rhinovirus; design: Anti-Rhinovirus activity, HRV10: unit not given here
HRV61 (6669-CV39) = assay: Anti-rhinovirus spectrum (MTT), HRV61; format: cell-based, human rhinovirus; design: Anti-Rhinovirus activity, HRV61: unit not given here
HRV39 (209) = assay: Anti-rhinovirus spectrum (MTT), HRV39; format: cell-based, human rhinovirus; design: Anti-Rhinovirus activity, HRV39: unit not given here
HRV33 (1200) = assay: Anti-rhinovirus spectrum (MTT), HRV33; format: cell-based, human rhinovirus; design: Anti-Rhinovirus activity, HRV33: unit not given here
HRV41 (56110) = assay: Anti-rhinovirus spectrum (MTT), HRV41; format: cell-based, human rhinovirus; design: Anti-Rhinovirus activity, HRV41: unit not given here
HRV8(MRH) = assay: Anti-rhinovirus spectrum (MTT), HRV8; format: cell-based, human rhinovirus; design: Anti-Rhinovirus activity, HRV8: unit not given here
HRV14 (1059) = assay: Anti-rhinovirus activity (MTT), HRV14; format: cell-based, human rhinovirus; design: Anti-Rhinovirus activity, HRV14: unit not given here
[5] = test system: coxsackievirus type A7 (CA7); assay: In vitro anti-picornavirus activity (MTT), CA7; format: cell-based; details: HeLa-S3 cells, MTT method, 37° C.
HRV3(FEB) = assay: Anti-rhinovirus spectrum (MTT), HRV3; format: cell-based, human rhinovirus; design: Anti-Rhinovirus activity, HRV3: unit not given here
HRV13 (353) = assay: Anti-rhinovirus spectrum (MTT), HRV13; format: cell-based, human rhinovirus; design: Anti-Rhinovirus activity, HRV13: unit not given here
HRV 89 (41617-Gallo) = assay: Anti-rhinovirus activity (MTT), HRV89; format: cell-based, human rhinovirus; design: Anti-Rhinovirus activity, HRV89: unit not given here; details: for IC50 HRV89: HeLa (Ohio strain) cells, MTT method, 33° C.
HRV31 (41F) = assay: Anti-rhinovirus spectrum (MTT), HRV31; format: cell-based, human rhinovirus; design: Anti-Rhinovirus activity, HRV31: unit not given here
HRV 2 (HGP) = assay: Anti-rhinovirus activity (MTT), HRV2; format: cell-based, human rhinovirus; design: Anti-Rhinovirus activity, HRV2: unit not given here; details: for IC50 HRV2: HeLa (Ohio strain) cells, MTT method, 33° C.
HRV21 (47) = assay: Anti-rhinovirus spectrum (MTT), HRV21; format: cell-based, human rhinovirus; design: Anti-Rhinovirus activity, HRV21: unit not given here
HRV36 (342H) = assay: Anti-rhinovirus spectrum (MTT), HRV36; format: cell-based, human rhinovirus; design: Anti-Rhinovirus activity, HRV36: unit not given here
HRV16 (11757) = assay: Anti-rhinovirus spectrum (MTT), HRV16; format: cell-based, human rhinovirus; design: Anti-Rhinovirus activity, HRV16: unit not given here
[6] = test system: clinical isolate (89229T); assay: microbe, parasite or virus in culture; format: cell-based, human rhinovirus; design: Anti-Rhinovirus activity, Clinical isolated strain: unit not given here
HeLa (Ohio strain)cells = assay: Cytotoxicity (MTT, without virus), HeLa(Ohio); details: HeLa(Ohio), no virus, incubated for 4 days
[7] = HeLa (Ohio strain) cells, MTT method, 33° C.

CCn1c2c(c(=O)c3cc(CC(C)C)ccc31)Cc1cc(OC)ccc1-2 [Compound B15]
Anti-Rhinovirus activity, HRV50 (HRV50(A2#58); HRV50): 0.28 | Anti-Rhinovirus activity, HRV5 (HRV5; HRV5): 0.39 | Anti-Rhinovirus activity, HRV29 (HRV29 (5582); HRV29): 0.67 | IC50 Polio 1 [1]: 0.49 µg/mL (≈ 1.41 µM) | IC50 Echo 11 [2]: 0.27 µg/mL (≈ 0.777 µM) | Anti-Rhinovirus activity, HRV32 (HRV32 (363); HRV32): 0.65 | IC50 CB4 [3]: 1.9 µg/mL (≈ 5.47 µM) | Cytotoxicity CC50 HeLa (HeLa cells): >2.5 µg/mL | Cytotoxicity CC50 HeLa-S3 (HeLa-S3 cells): >2.5 µg/mL | Anti-Rhinovirus activity, HRV1A (HRV1A (E28); HRV1A): >2.5 | IC50 HRV 1A (HRV1A (E28); [7]): >2.5 µg/mL | Anti-Rhinovirus activity, HRV1B ([4]; HRV1B): 0.36 | IC50 HRV1B [4]: 0.36 µg/mL (≈ 1.04 µM) | Anti-Rhinovirus activity, HRV10 (HRV10 (204-CV14); HRV10): 1.1 | Anti-Rhinovirus activity, HRV61 (HRV61 (6669-CV39); HRV61): 0.39 | Anti-Rhinovirus activity, HRV39 (HRV39 (209); HRV39): 0.46 | Anti-Rhinovirus activity, HRV33 (HRV33 (1200); HRV33): 0.29 | Anti-Rhinovirus activity, HRV41 (HRV41 (56110); HRV41): 0.18 | Anti-Rhinovirus activity, HRV8 (HRV8(MRH); HRV8): 0.38 | Anti-Rhinovirus activity, HRV14 (HRV14 (1059); HRV14): 0.84 | IC50 HRV 14 (HRV14 (1059); [7]): 0.84 µg/mL (≈ 2.42 µM) | IC50 CA7 [5]: 2.2 µg/mL (≈ 6.33 µM) | Anti-Rhinovirus activity, HRV3 (HRV3(FEB); HRV3): 1.1 | Anti-Rhinovirus activity, HRV13 (HRV13 (353); HRV13): 0.18 | Anti-Rhinovirus activity, HRV89 (HRV 89 (41617-Gallo); HRV89): 0.39 | IC50 HRV89 (HRV 89 (41617-Gallo)): 0.39 µg/mL (≈ 1.12 µM) | Anti-Rhinovirus activity, HRV31 (HRV31 (41F); HRV31): 0.38 | Anti-Rhinovirus activity, HRV2 (HRV 2 (HGP); HRV2): 0.44 | IC50 HRV2 (HRV 2 (HGP)): 0.44 µg/mL (≈ 1.27 µM) | Anti-Rhinovirus activity, HRV21 (HRV21 (47); HRV21): 0.34 | Anti-Rhinovirus activity, HRV36 (HRV36 (342H); HRV36): 0.32 | Anti-Rhinovirus activity, HRV16 (HRV16 (11757); HRV16): 1.2 | Anti-Rhinovirus activity, Clinical isolated strain ([6]; Clinical isolated strain): 1.1 | Cytotoxicity CC50 HeLa(Ohio) (HeLa (Ohio strain)cells): >2.5 µg/mL

Cc1c(-c2ccccc2)n(-c2cccc(F)c2)c2ccc(C(C)C)cc2c1=O [Compound A322]
Anti-Rhinovirus activity, HRV50 (HRV50(A2#58); Table VII, rhinovirus serotype HRV50): 0.023 | Anti-Rhinovirus activity, HRV5 (HRV5; Table VII, rhinovirus serotype HRV5): >1.0 | Anti-Rhinovirus activity, HRV29 (HRV29 (5582); Table VII, rhinovirus serotype HRV29): 0.080 | Anti-Rhinovirus activity, HRV32 (HRV32 (363); Table VII, rhinovirus serotype HRV32): 0.020 | Anti-Rhinovirus activity, HRV1A (HRV1A (E28); Table VII, rhinovirus serotype HRV1A, same method as above): >1.0 | IC50 HRV1B [4]: 0.18 µg/mL (≈ 0.485 µM) | Anti-Rhinovirus activity, HRV1B ([4]; Table VII, rhinovirus serotype HRV1B): 0.18 | Anti-Rhinovirus activity, HRV10 (HRV10 (204-CV14); Table VII, rhinovirus serotype HRV10): 0.013 | Anti-Rhinovirus activity, HRV61 (HRV61 (6669-CV39); Table VII, rhinovirus serotype HRV61): 0.29 | Anti-Rhinovirus activity, HRV39 (HRV39 (209); Table VII, rhinovirus serotype HRV39): 0.012 | Anti-Rhinovirus activity, HRV33 (HRV33 (1200); Table VII, rhinovirus serotype HRV33): 0.17 | Anti-Rhinovirus activity, HRV41 (HRV41 (56110); Table VII, rhinovirus serotype HRV41): 0.034 | Anti-Rhinovirus activity, HRV8 (HRV8(MRH); Table VII, rhinovirus serotype HRV8): >1.0 | Anti-Rhinovirus activity, HRV14 (HRV14 (1059); Table VII, rhinovirus serotype HRV14): >1.0 | Anti-Rhinovirus activity, HRV3 (HRV3(FEB); Table VII, rhinovirus serotype HRV3): >1.0 | Anti-Rhinovirus activity, HRV13 (HRV13 (353); Table VII, rhinovirus serotype HRV13): 0.029 | IC50 HRV89 (HRV 89 (41617-Gallo)): 0.034 µg/mL (≈ 0.0915 µM) | Anti-Rhinovirus activity, HRV89 (HRV 89 (41617-Gallo); Table VII, rhinovirus serotype HRV89): 0.034 | Anti-Rhinovirus activity, HRV31 (HRV31 (41F); Table VII, rhinovirus serotype HRV31): 0.045 | IC50 HRV2 (HRV 2 (HGP)): 0.030 µg/mL (≈ 0.0808 µM) | Anti-Rhinovirus activity, HRV2 (HRV 2 (HGP); Table VII, rhinovirus serotype HRV2): 0.030 | Anti-Rhinovirus activity, HRV21 (HRV21 (47); Table VII, rhinovirus serotype HRV21): 0.048 | Anti-Rhinovirus activity, HRV36 (HRV36 (342H); Table VII, rhinovirus serotype HRV36): 0.085 | Anti-Rhinovirus activity, HRV16 (HRV16 (11757); Table VII, rhinovirus serotype HRV16): 0.030 | Anti-rhinovirus activity Clinically isolated strain ([6]; Table VII, clinical isolate (89229T)): 0.017 | Cytotoxicity CC50 HeLa(Ohio) (HeLa (Ohio strain)cells): >1 µg/mL
